The values below come from PubChem BioAssay (NCI).

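1) Cells in 96-well plates. 2) Compound, 48 h, 5 concentrations. 3) Linear interpolation between surrounding doses. 4) Unreached endpoint = highest concentration. GI50 = concentration required for 50% inhibition of growth. The concentration for full growth arrest is given as TGI.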

Test systems include SF-539 CNS; RPMI-8226 leukemia; COLO 205 colon; HCC-2998 colon; IGROV1 ovarian; OVCAR-4 ovarian; NCI-H522 lung; SF-295 CNS; OVCAR-3 ovarian; RXF 393 renal.
Holding throughout (assay): NCI tumour cell line growth inhibition, 48 h

With `[N-]=[N+]=NC1C2CC3CC(C2)CC1C3` (stereo not given), the TGI in the experiment on SF-539 CNS, in the experiment on RPMI-8226 leukemia, with COLO 205 colon, in the experiment on HCC-2998 colon, with IGROV1 ovarian and in the experiment on OVCAR-4 ovarian was greater than 100 µM in each case. For the same molecule, the TGI with NCI-H522 lung, in the experiment with SF-295 CNS and in the experiment on OVCAR-3 ovarian was greater than 100 µM throughout.

For `COc1ccc2c(c1)c(-c1ccc(-c3cn(C)c4ccc(OC)cc34)o1)cn2C`, the GI50 is 2.47 µM in the experiment with SF-539 CNS; 2.25 µM with RPMI-8226 leukemia; 5.13 µM in the experiment with COLO 205 colon; 29.6 µM in the experiment on IGROV1 ovarian; 2.06 µM with OVCAR-4 ovarian; 3.42 µM in the experiment with NCI-H522 lung. Further, the results for the GI50 in the experiment with SF-295 CNS, in the experiment on OVCAR-3 ovarian and with RXF 393 renal were 13.4 µM, 8.51 µM and 10.4 µM, respectively. The TGI in the experiment on SF-539 CNS is 9.27 µM; in the experiment on RPMI-8226 leukemia it was 5.07 µM; in the experiment on COLO 205 colon it was 31.1 µM; with IGROV1 ovarian it was greater than 100 µM; in the experiment with OVCAR-4 ovarian it was 4.08 µM; in the experiment with NCI-H522 lung, 10 µM. In addition, the values for the TGI in the experiment on SF-295 CNS, with OVCAR-3 ovarian and in the experiment on RXF 393 renal were 62.6 µM, 29.3 µM and 44 µM, respectively.

In the case of `S=C1SCN(C2CCCCCCCCCCC2)CN1C1CCCCCCCCCCC1`, the TGI in the experiment with SF-539 CNS, in the experiment on RPMI-8226 leukemia, in the experiment on COLO 205 colon, in the experiment on IGROV1 ovarian, in the experiment on OVCAR-4 ovarian and with NCI-H522 lung was greater than 100 µM each time. For the same molecule, the TGI with SF-295 CNS, in the experiment with OVCAR-3 ovarian and with RXF 393 renal was greater than 100 µM in each case.

With `CNC(=S)N(C1CCCCC1)C1CCCCC1`, the TGI in the experiment on SF-539 CNS, in the experiment on RPMI-8226 leukemia, in the experiment on COLO 205 colon, in the experiment on HCC-2998 colon, in the experiment on IGROV1 ovarian and with OVCAR-4 ovarian was greater than 100 µM throughout. For the same molecule, the TGI in the experiment with SF-295 CNS, in the experiment with OVCAR-3 ovarian and with RXF 393 renal was greater than 100 µM throughout.

As to `CCC(C)(C)NS(=O)(=O)c1ccccc1`, the TGI with SF-539 CNS, in the experiment with RPMI-8226 leukemia, with HCC-2998 colon, with IGROV1 ovarian, in the experiment on OVCAR-4 ovarian and in the experiment with SF-295 CNS was greater than 100 µM throughout. Moreover, the TGI in the experiment on OVCAR-3 ovarian and in the experiment with RXF 393 renal was greater than 100 µM each time.

On to `COc1cc(=O)oc(/C=C/C=C/C=C/C(C)=C\C2(C)OC(C)C(C)(O)C2O)c1C` (stereo not given), for which the TGI with SF-539 CNS, with RPMI-8226 leukemia, with COLO 205 colon, in the experiment on IGROV1 ovarian, in the experiment with SF-295 CNS and with OVCAR-3 ovarian was greater than 100 µM each time.

`CCOC(=O)NC(=O)c1cn(C2OC(COC(=O)CCCCCCCCC(=O)OCC3OC(n4cc(C(=O)NC(=O)OCC)c(=O)[nH]c4=O)C4OC(C)(C)OC34)C3OC(C)(C)OC32)c(=O)[nH]c1=O` (stereo not given): the TGI in the experiment with SF-539 CNS, in the experiment on RPMI-8226 leukemia, with HCC-2998 colon, with IGROV1 ovarian, with OVCAR-4 ovarian and in the experiment on SF-295 CNS was greater than 100 µM in each case. For the same molecule, the TGI in the experiment on OVCAR-3 ovarian and with RXF 393 renal was greater than 100 µM in each case.

Take `CC1(C)OC2COC(c3[nH]nc4c(=O)[nH]c(=O)[nH]c34)C2O1` (stereo not given): the TGI in the experiment on SF-539 CNS, in the experiment on RPMI-8226 leukemia, with COLO 205 colon, in the experiment on IGROV1 ovarian, with OVCAR-4 ovarian and with NCI-H522 lung was greater than 100 µM each time. Further, the TGI in the experiment on SF-295 CNS, in the experiment on OVCAR-3 ovarian and in the experiment with RXF 393 renal was greater than 100 µM in each case.

With `CCCCCC(=C/c1ccccc1)/C=N/N=C(N)N`, the GI50 is 1.95 µM in the experiment on SF-539 CNS; 1.42 µM in the experiment on RPMI-8226 leukemia; 1.65 µM in the experiment with COLO 205 colon; 1.32 µM with IGROV1 ovarian; 1.46 µM in the experiment on OVCAR-4 ovarian; 1.67 µM in the experiment with SF-295 CNS. Further, the values for the GI50 in the experiment on OVCAR-3 ovarian and in the experiment on RXF 393 renal were 1.27 µM and 1.72 µM, respectively. The TGI was 3.71 µM in the experiment with SF-539 CNS; 3.55 µM with RPMI-8226 leukemia; 3.17 µM in the experiment with COLO 205 colon; 2.72 µM with IGROV1 ovarian; 2.84 µM in the experiment on OVCAR-4 ovarian; 3.49 µM in the experiment with SF-295 CNS. Further, the values for the TGI with OVCAR-3 ovarian and with RXF 393 renal were 2.56 µM and 3.15 µM, respectively.

Consider `O=C(O)CNC(=O)C1NC(C(F)(F)F)(C(F)(F)F)OC1(C(F)(F)F)C(F)(F)F` (stereo not given), for which the TGI in the experiment with SF-539 CNS, with RPMI-8226 leukemia, in the experiment on COLO 205 colon, with IGROV1 ovarian, in the experiment on OVCAR-4 ovarian and in the experiment with NCI-H522 lung was greater than 100 µM in each case. The TGI in the experiment on SF-295 CNS, in the experiment on OVCAR-3 ovarian and in the experiment on RXF 393 renal was greater than 100 µM each time.

For the molecule `Cc1nc2ccccc2c(/C=C/c2ccccc2)c1C(=O)/C=C/c1ccccc1`, the GI50 in the experiment on SF-539 CNS is 1.76 µM; in the experiment with COLO 205 colon, 1.82 µM; in the experiment on HCC-2998 colon it was 1.86 µM; with IGROV1 ovarian, 1.84 µM; with SF-295 CNS, 2.8 µM; in the experiment with RXF 393 renal it was 1.78 µM. Further, the TGI in the experiment on SF-539 CNS worked out at 3.19 µM; in the experiment on COLO 205 colon, 4.44 µM; in the experiment on HCC-2998 colon, 3.53 µM; with IGROV1 ovarian, 6.18 µM; in the experiment on SF-295 CNS it was 8.36 µM; with RXF 393 renal it was 3.22 µM.

In the case of `O=C(CC1SC(=Nc2ccccc2Cl)NC1=O)Nc1ccc(Cl)cc1` (stereo not given), the TGI with SF-539 CNS is greater than 100 µM; in the experiment on COLO 205 colon, 48.7 µM; in the experiment on HCC-2998 colon, greater than 100 µM; in the experiment on IGROV1 ovarian it was greater than 100 µM; in the experiment on OVCAR-4 ovarian, greater than 100 µM; with SF-295 CNS, greater than 100 µM. In addition, the TGI with RXF 393 renal was greater than 100 µM.
